Key:
Experiment in all cases: drug sensitivity score (DSS) from 5-point dose-response viability curve (DSS (area-under-curve based score)); higher = more sensitive (stronger growth inhibition or killing); extreme values may be limits of the assay
Conditions in all cases: exposure time: 72 h; concentration range: 5 concentrations over 10,000-fold range
CAOV3 = tested on: CAOV3
Outline: (§1)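 Drugs in DMSO or water were acoustically dispensed (Echo 550) into 384-well plates at five concentrations across a 10,000-fold range. Ovarian cancer and normal ovarian cells (1,500 per well) were then added, incubated for 3 days at 37°C with 5% CO2, and read for viability by CellTiter-Glo luminescence on a PHERAstar FS. From these readings, Breeze software derived a drug sensitivity score per cell line and drug, with higher values meaning more sensitive and zero meaning no response.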

OVCAR4 = tested on: OVCAR4
Outline: as §1

OV90 = tested on: OV90
Outline: as §1

OVCAR8 = tested on: OVCAR8
Outline: as §1

COV362 = tested on: COV362
Outline: as §1

OVCAR5 = tested on: OVCAR5
Outline: as §1

Kuramochi = tested on: Kuramochi
Outline: as §1

Ovsaho = tested on: Ovsaho
Outline: as §1

COV318 = tested on: COV318
Outline: as §1

HOSE2C = tested on: HOSE2C
Outline: as §1

HOSE1C = tested on: HOSE1C
Outline: as §1

JHOS2 = tested on: JHOS2
Outline: as §1

`CCCC(CCC)C(=O)O` [Valproic acid] was tested, and the drug sensitivity score (CAOV3) was 0, the drug sensitivity score (OVCAR4) was 0 and the drug sensitivity score (OV90) was 0. The drug sensitivity score (OVCAR8) was 0, the drug sensitivity score (COV362) was 0 and the drug sensitivity score (OVCAR5) was 0. The drug sensitivity score (Kuramochi) was 0, the drug sensitivity score (Ovsaho) was 0 and the drug sensitivity score (COV318) was 0. It also gave a drug sensitivity score (HOSE2C) of 0, a drug sensitivity score (HOSE1C) of 0 and a drug sensitivity score (JHOS2) of 0.

`CCCCC(=O)OCC(=O)[C@]1(O)Cc2c(O)c3c(c(O)c2[C@@H](O[C@H]2C[C@H](NC(=O)C(F)(F)F)[C@H](O)[C@H](C)O2)C1)C(=O)c1c(OC)cccc1C3=O` [Valrubicin] was tested, and the drug sensitivity score (CAOV3) was 10.8, the drug sensitivity score (OVCAR4) was 3.8 and the drug sensitivity score (OV90) was 7.7. The drug sensitivity score (OVCAR8) was 9.5, the drug sensitivity score (COV362) was 2.4 and the drug sensitivity score (OVCAR5) was 6.2. It also gave a drug sensitivity score (Kuramochi) of 6.6, a drug sensitivity score (Ovsaho) of 10.9 and a drug sensitivity score (COV318) of 4.4. The drug sensitivity score (HOSE2C) was 8.3, the drug sensitivity score (HOSE1C) was 10.1 and the drug sensitivity score (JHOS2) was 6.6.

`COc1cc2/c(=N/c3ccc(Br)cc3F)nc[nH]c2cc1OCC1CCN(C)CC1` [Vandetanib] was tested, and the drug sensitivity score (CAOV3) was 1.7, the drug sensitivity score (OVCAR4) was 1.2 and the drug sensitivity score (OV90) was 0. The drug sensitivity score (OVCAR8) was 0, the drug sensitivity score (COV362) was 1.3 and the drug sensitivity score (OVCAR5) was 1.5. It also gave a drug sensitivity score (Kuramochi) of 2.9, a drug sensitivity score (Ovsaho) of 4.7 and a drug sensitivity score (COV318) of 0.6. The drug sensitivity score (HOSE2C) was 0, the drug sensitivity score (HOSE1C) was 0 and the drug sensitivity score (JHOS2) was 0.6.

`CCc1c(C(=O)C(N)=O)c2c(OCC(=O)O)cccc2n1Cc1ccccc1` [Varespladib] was tested, and the drug sensitivity score (CAOV3) was 0, the drug sensitivity score (OVCAR4) was 0 and the drug sensitivity score (OV90) was 0. For the same compound, the drug sensitivity score (OVCAR8) was 0, the drug sensitivity score (COV362) was 0 and the drug sensitivity score (OVCAR5) was 0. The drug sensitivity score (Kuramochi) was 0, the drug sensitivity score (Ovsaho) was 0 and the drug sensitivity score (COV318) was 0. It also gave a drug sensitivity score (HOSE2C) of 0, a drug sensitivity score (HOSE1C) of 0 and a drug sensitivity score (JHOS2) of 0.1.

With `C[C@@H]1COC(Nc2ccc3ncnc(Nc4ccc(OCc5nccs5)c(Cl)c4)c3c2)=N1` [Varlitinib] the drug sensitivity score (CAOV3) was 3.2, the drug sensitivity score (OVCAR4) was 1.9 and the drug sensitivity score (OV90) was 0. For the same compound, the drug sensitivity score (OVCAR8) was 5.4, the drug sensitivity score (COV362) was 0 and the drug sensitivity score (OVCAR5) was 4.1. For the same compound, the drug sensitivity score (Kuramochi) was 0.4, the drug sensitivity score (Ovsaho) was 0.3 and the drug sensitivity score (COV318) was 0. The drug sensitivity score (HOSE2C) was 0.2, the drug sensitivity score (HOSE1C) was 0.4 and the drug sensitivity score (JHOS2) was 0.

Work on `Clc1ccc(Nc2nnc(Cc3ccncc3)c3ccccc23)cc1` [Vatalanib] yielded a drug sensitivity score (CAOV3) of 0, a drug sensitivity score (OVCAR4) of 0 and a drug sensitivity score (OV90) of 0. The drug sensitivity score (OVCAR8) was 0, the drug sensitivity score (COV362) was 0 and the drug sensitivity score (OVCAR5) was 0. It also gave a drug sensitivity score (Kuramochi) of 0, a drug sensitivity score (Ovsaho) of 0.7 and a drug sensitivity score (COV318) of 0. The drug sensitivity score (HOSE2C) was 0, the drug sensitivity score (HOSE1C) was 0 and the drug sensitivity score (JHOS2) was 0.

Work on `C[C@]1(c2nc3c(C(N)=O)cccc3[nH]2)CCCN1` [Veliparib] yielded a drug sensitivity score (CAOV3) of 0, a drug sensitivity score (OVCAR4) of 0 and a drug sensitivity score (OV90) of 0.7. It also gave a drug sensitivity score (OVCAR8) of 0.2, a drug sensitivity score (COV362) of 0 and a drug sensitivity score (OVCAR5) of 1.3. It also gave a drug sensitivity score (Kuramochi) of 0, a drug sensitivity score (Ovsaho) of 0.4 and a drug sensitivity score (COV318) of 0. The drug sensitivity score (HOSE2C) was 0, the drug sensitivity score (HOSE1C) was 0 and the drug sensitivity score (JHOS2) was 0.

`CCCS(=O)(=O)Nc1ccc(F)c(C(=O)c2c[nH]c3ncc(-c4ccc(Cl)cc4)cc23)c1F` [Vemurafenib] showed a drug sensitivity score (CAOV3) of 0, a drug sensitivity score (OVCAR4) of 0 and a drug sensitivity score (OV90) of 0. For the same compound, the drug sensitivity score (OVCAR8) was 0.5, the drug sensitivity score (COV362) was 0 and the drug sensitivity score (OVCAR5) was 0.5. The drug sensitivity score (Kuramochi) was 0.3, the drug sensitivity score (Ovsaho) was 0 and the drug sensitivity score (COV318) was 0. The drug sensitivity score (HOSE2C) was 1.1, the drug sensitivity score (HOSE1C) was 0.4 and the drug sensitivity score (JHOS2) was 0.

`CC1(C)CCC(CN2CCN(c3ccc(C(=O)NS(=O)(=O)c4ccc(NCC5CCOCC5)c([N+](=O)[O-])c4)c(Oc4cnc5[nH]ccc5c4)c3)CC2)=C(c2ccc(Cl)cc2)C1` [Venetoclax] showed a drug sensitivity score (CAOV3) of 0, a drug sensitivity score (OVCAR4) of 0 and a drug sensitivity score (OV90) of 0. It also gave a drug sensitivity score (OVCAR8) of 0, a drug sensitivity score (COV362) of 0 and a drug sensitivity score (OVCAR5) of 0. It also gave a drug sensitivity score (Kuramochi) of 0, a drug sensitivity score (Ovsaho) of 0 and a drug sensitivity score (COV318) of 0. It also gave a drug sensitivity score (HOSE2C) of 0, a drug sensitivity score (HOSE1C) of 0 and a drug sensitivity score (JHOS2) of 2.8.

`O=C(/C=C\n1cnc(-c2cc(C(F)(F)F)cc(C(F)(F)F)c2)n1)NNc1ccccn1` [Verdinexor] was tested, and the drug sensitivity score (CAOV3) was 9.2, the drug sensitivity score (OVCAR4) was 5.4 and the drug sensitivity score (OV90) was 5.1. It also gave a drug sensitivity score (OVCAR8) of 10.9, a drug sensitivity score (COV362) of 4.7 and a drug sensitivity score (OVCAR5) of 7.5. The drug sensitivity score (Kuramochi) was 3.1, the drug sensitivity score (Ovsaho) was 7.6 and the drug sensitivity score (COV318) was 3.6. For the same compound, the drug sensitivity score (HOSE2C) was 6.1, the drug sensitivity score (HOSE1C) was 22.2 and the drug sensitivity score (JHOS2) was 7.

Work on `CCCCOc1nc(N)c2c(n1)N(Cc1cccc(CN3CCCC3)c1)CC(=O)N2` [Vesatolimod] yielded a drug sensitivity score (CAOV3) of 0, a drug sensitivity score (OVCAR4) of 0.4 and a drug sensitivity score (OV90) of 0. For the same compound, the drug sensitivity score (OVCAR8) was 0, the drug sensitivity score (COV362) was 0 and the drug sensitivity score (OVCAR5) was 0. The drug sensitivity score (Kuramochi) was 1, the drug sensitivity score (Ovsaho) was 0 and the drug sensitivity score (COV318) was 0. For the same compound, the drug sensitivity score (HOSE2C) was 0, the drug sensitivity score (HOSE1C) was 0 and the drug sensitivity score (JHOS2) was 0.

With `COc1cccc(-c2ccc(NC(=O)C3=C(C(=O)O)CCC3)c(F)c2)c1` [Vidofludimus] the drug sensitivity score (CAOV3) was 0, the drug sensitivity score (OVCAR4) was 0 and the drug sensitivity score (OV90) was 0. For the same compound, the drug sensitivity score (OVCAR8) was 2.1, the drug sensitivity score (COV362) was 0 and the drug sensitivity score (OVCAR5) was 0. It also gave a drug sensitivity score (Kuramochi) of 0, a drug sensitivity score (Ovsaho) of 0.2 and a drug sensitivity score (COV318) of 0. For the same compound, the drug sensitivity score (HOSE2C) was 3.9, the drug sensitivity score (HOSE1C) was 6 and the drug sensitivity score (JHOS2) was 0.1.

Work on `CC[C@]1(O)C[C@@H]2CN(CCc3c([nH]c4ccccc34)[C@@](C(=O)OC)(c3cc4c(cc3OC)N(C)[C@H]3[C@@](O)(C(=O)OC)[C@H](OC(C)=O)[C@]5(CC)C=CCN6CC[C@]43[C@@H]65)C2)C1` [Vinblastine] yielded a drug sensitivity score (CAOV3) of 22.4, a drug sensitivity score (OVCAR4) of 9.1 and a drug sensitivity score (OV90) of 18.5. For the same compound, the drug sensitivity score (OVCAR8) was 8.6, the drug sensitivity score (COV362) was 2.3 and the drug sensitivity score (OVCAR5) was 3. For the same compound, the drug sensitivity score (Kuramochi) was 4.4, the drug sensitivity score (Ovsaho) was 5.3 and the drug sensitivity score (COV318) was 1.1. The drug sensitivity score (HOSE2C) was 12.3, the drug sensitivity score (HOSE1C) was 13.8 and the drug sensitivity score (JHOS2) was 3.7.

`CC[C@]1(O)C[C@H]2CN(CCc3c([nH]c4ccccc34)[C@@](C(=O)OC)(c3cc4c(cc3OC)N(C=O)[C@H]3[C@@](O)(C(=O)OC)[C@H](OC(C)=O)[C@]5(CC)C=CCN6CC[C@]43[C@@H]65)C2)C1` [Vincristine] gave a drug sensitivity score (CAOV3) of 21.3, a drug sensitivity score (OVCAR4) of 6.6 and a drug sensitivity score (OV90) of 16.9. The drug sensitivity score (OVCAR8) was 8.9, the drug sensitivity score (COV362) was 3.3 and the drug sensitivity score (OVCAR5) was 4.5. The drug sensitivity score (Kuramochi) was 3.1, the drug sensitivity score (Ovsaho) was 5.9 and the drug sensitivity score (COV318) was 1.9. It also gave a drug sensitivity score (HOSE2C) of 17.7, a drug sensitivity score (HOSE1C) of 16.3 and a drug sensitivity score (JHOS2) of 2.7.

`CC[C@]12C=CCN3CC[C@@]4(c5cc([C@@]6(C(=O)OC)C[C@@H]7C[C@@H](C(C)(F)F)CN(Cc8c6[nH]c6ccccc86)C7)c(OC)cc5N(C)[C@H]4[C@@](O)(C(=O)OC)[C@@H]1OC(C)=O)[C@@H]32` [Vinflunine] showed a drug sensitivity score (CAOV3) of 4.3, a drug sensitivity score (OVCAR4) of 2.1 and a drug sensitivity score (OV90) of 3.3. It also gave a drug sensitivity score (OVCAR8) of 4.1, a drug sensitivity score (COV362) of 1.3 and a drug sensitivity score (OVCAR5) of 3.4. For the same compound, the drug sensitivity score (Kuramochi) was 1.9, the drug sensitivity score (Ovsaho) was 1.8 and the drug sensitivity score (COV318) was 0.7. For the same compound, the drug sensitivity score (HOSE2C) was 3.6, the drug sensitivity score (HOSE1C) was 3.6 and the drug sensitivity score (JHOS2) was 2.4.
